Experimental findings from patent publication US20160002204A1 (Board of Regents, The University of Texas System, priority 2014, published 2016) are described below.

SMILES strings stand for the structures. Some results are limits rather than exact numbers.

In test [1] the target is T1, GLS1 (purified recombinant human GAC) (Homo sapiens, UniProt O94925).
T1 sequence (O94925 55-598 isoform O94925-3 limits assumed): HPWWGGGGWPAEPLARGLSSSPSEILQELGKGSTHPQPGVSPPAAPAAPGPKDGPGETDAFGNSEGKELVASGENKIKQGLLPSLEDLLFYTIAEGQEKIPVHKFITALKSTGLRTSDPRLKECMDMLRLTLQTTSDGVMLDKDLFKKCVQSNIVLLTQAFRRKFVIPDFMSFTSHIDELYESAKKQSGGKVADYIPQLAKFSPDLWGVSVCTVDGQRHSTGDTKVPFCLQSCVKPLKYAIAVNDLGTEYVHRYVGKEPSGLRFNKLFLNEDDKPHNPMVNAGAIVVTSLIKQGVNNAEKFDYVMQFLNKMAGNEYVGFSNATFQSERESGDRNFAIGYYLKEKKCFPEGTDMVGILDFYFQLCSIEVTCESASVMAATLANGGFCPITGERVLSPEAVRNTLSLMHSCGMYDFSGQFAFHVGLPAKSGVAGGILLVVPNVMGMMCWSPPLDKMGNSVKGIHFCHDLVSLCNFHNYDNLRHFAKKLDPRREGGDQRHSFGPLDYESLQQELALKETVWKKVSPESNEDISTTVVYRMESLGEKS
The test can be described thus: GLS1 enzymatic activity assay (dual-coupled, Amplex UltraRed/resorufin). The format is biochemical. A digest of the protocol:
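GAC activity measured by coupling glutamate to glutamate oxidase and HRP, generating resorufin from Amplex UltraRed. Enzyme (2 nM) preincubated with 50 mM potassium phosphate 10 min at room temperature, then inhibitor 10 min; 1 mM glutamine substrate, 1% DMSO. Fluorescence 530/590 nm, kinetic or 20-min endpoint; IC50 from four-parameter logistic fit.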

In a further test the test system is A549 cells. Briefly: A549 proliferation (viability) assay, Cell Titer Fluor, 72 hours. The format is cell-based. Conditions: Homo sapiens. The procedure, abridged:
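Compound exposure lasted 72 h (final DMSO 0.5% v/v) on A549 cells plated at 1000 cells/well one day earlier. Cell Titer Fluor added, 30 min at 37 °C, fluorescence read; EC50 derived by four-parameter logistic curve fitting.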

Turning to `O=C(CC1CCCCO1)Nc1ccn(CCC(F)Cn2cc(C(=O)NCc3cc(Cl)ccc3F)nn2)c(=O)c1` (centres unmarked) [Example 215, N-[(5-chloro-2-fluorophenyl)methyl]-1-(2-fluoro-4-{4-[2-(oxan-2-yl)acetamido]-2-oxo-1,2-dihydropyridin-1-yl}butyl)-1H-1,2,3-triazole-4-carboxamide], the IC50 (in general, the concentration at which inhibition is half-maximal) in test [1] was below 100 nM. Further, the EC50 (as a rule, the concentration giving half of the maximal effect) in the test on A549 cells fell in the range of 100 to 500 nM.

Turning to `O=C(Cc1ccccc1)Nc1ccn(CCC(F)Cn2cc(C(=O)NCc3cc(Cl)ccc3F)nn2)c(=O)c1` (centres unmarked) [Example 216, N-[(5-chloro-2-fluorophenyl)methyl]-1-{2-fluoro-4-[2-oxo-4-(2-phenylacetamido)-1,2-dihydropyridin-1-yl]butyl}-1H-1,2,3-triazole-4-carboxamide], the IC50 in test [1] is below 100 nM. The compound also returned an EC50 in the test with A549 cells of 100 to 500 nM.

On to `O=C(CC1CCC1)Nc1ccn(CCC(F)Cn2cc(C(=O)NCc3cccc(OC(F)(F)F)c3)nn2)c(=O)c1` (stereo not drawn) [Example 217, l-{4-[4-(2-cyclobutylacetamido)-2-oxo-1,2-dihydropyridin-1-yl]-2-fluorobutyl}-N-{[3-(trifluoromethoxy)phenyl]methyl}-1H-1,2,3-triazole-4-carboxamide], for which, in test [1], the IC50 was below 100 nM. For the same compound, the 50% effective concentration (EC50) in the test with A549 cells is below 100 nM.

For the compound `CC(C)(C)OC(=O)N1CCC(CC(=O)Nc2ccn(CCC(F)Cn3cc(C(=O)NCc4cccc(OC(F)(F)F)c4)nn3)c(=O)c2)CC1` (centres unmarked) [Example 219, tert-butyl 4-{[(1-{3-fluoro-4-[4-({[3-(trifluoromethoxy)phenyl]methyl}carbamoyl)-1H-1,2,3-triazol-1-yl]butyl}-2-oxo-1,2-dihydropyridin-4-yl)carbamoyl]methyl}piperidine-1-carboxylate], in test [1], the IC50 is below 100 nM. The compound also came in with an EC50 in the test on A549 cells below 100 nM.

Consider `O=C(CC1CCCC1)Nc1ccn(CCC(F)Cn2cc(C(=O)NCc3cccc(OC(F)(F)F)c3)nn2)c(=O)c1` (centres unmarked) [Example 220, 1-{4-[4-(2-cyclopentylacetamido)-2-oxo-1,2-dihydropyridin-1-yl]-2-fluorobutyl}-N-{[3-(trifluoromethoxy)phenyl]methyl}-1H-1,2,3-triazole-4-carboxamide], for which the IC50 in test [1] is below 100 nM. In the test on A549 cells, this compound displayed an EC50 below 100 nM.

On to `CC(C)(C)OC(=O)N1CCC(CC(=O)Nc2ccn(CCC(F)Cn3cc(C(=O)NCc4cccc(OC(F)(F)F)c4)nn3)c(=O)c2)C1` (centres unmarked) [Example 221, tert-butyl 3-{[(1-{3-fluoro-4-[4-({[3-(trifluoromethoxy)phenyl]methyl}carbamoyl)-1H-1,2,3-triazol-1-yl]butyl}-2-oxo-1,2-dihydropyridin-4-yl)carbamoyl]methyl}pyrrolidine-1-carboxylate], for which, in test [1], the IC50 was below 100 nM. Besides, in the test with A549 cells, the EC50 is below 100 nM.

As to `CC(C)(C)OC(=O)NCc1cccc(CC(=O)Nc2ccn(CCC(F)Cn3cc(C(=O)NCc4cccc(OC(F)(F)F)c4)nn3)c(=O)c2)c1` (centres unmarked) [Example 222, tert-butyl N-[(3-{[(1-{3-fluoro-4-[4-({[3-(trifluoro-methoxy)phenyl]methyl}carbamoyl)-1H-1,2,3-triazol-1-yl]butyl}-2-oxo-1,2-dihydropyridin-4-yl)carbamoyl]methyl}phenyl)methyl] carbamate], the IC50 in test [1] is below 100 nM. This compound had an EC50 in the test on A549 cells of 100 to 500 nM.

Regarding `O=C(NCc1cccc(OC(F)(F)F)c1)c1cn(CC(F)CCn2ccc(NC(=O)[C@H](O)c3ccccc3)cc2=O)nn1` (stereo partly drawn) [Example 223, 1-(2-fluoro-4-{4-[(2R)-2-hydroxy-2-phenylacetamido]-2-oxo-1,2-dihydropyridin-1-yl}butyl)-N-{[3-(trifluoromethoxy)phenyl]methyl}-1H-1,2,3-triazole-4-carboxamide], the IC50 in test [1] was below 100 nM. This compound came in with an EC50 with A549 cells below 100 nM.

Consider `O=C(NCc1cccc(OC(F)(F)F)c1)c1cn(CC(F)CCn2ccc(NC(=O)[C@@H](O)c3ccccc3)cc2=O)nn1` (stereo partly drawn) [Example 224, 1-(2-fluoro-4-{4-[(2S)-2-hydroxy-2-phenylacetamido]-2-oxo-1,2-dihydropyridin-1-yl}butyl)-N-{[3-(trifluoromethoxy)phenyl]methyl}-1H-1,2,3-triazole-4-carboxamide], for which, in test [1], the IC50 was below 100 nM. Besides, the EC50 with A549 cells was below 100 nM.

In the case of `CC(C)(C)OC(=O)Nc1ccn(CCC(F)Cn2cc(C(=O)NCc3cccc(OC(F)(F)F)c3)nn2)c(=O)c1F` (centres unmarked) [Example 226, tert-butyl N-(3-fluoro-1-{3-fluoro-4-[4-({[3-(trifluoro-methoxy)phenyl]methyl}carbamoyl)-1H-1,2,3-triazol-1-yl]butyl}-2-oxo-1,2-dihydropyridin-4-yl)carbamate], the half-inhibitory concentration (IC50) in test [1] is below 100 nM. The compound further came in with a concentration giving a half-maximal response (EC50) in the test on A549 cells below 100 nM.

As for `O=C(CN1CCC(F)C1)Nc1ccn(CCC(F)Cn2cc(C(=O)NCc3cccc(OC(F)(F)F)c3)nn2)c(=O)c1` (centres unmarked) [Example 227, 1-(2-fluoro-4-{4-[2-(3-fluoropyrrolidin-1-yl)acetamido]-2-oxo-1,2-dihydropyridin-1-yl}butyl)-N-{[3-(trifluoromethoxy)phenyl]methyl}-1H-1,2,3-triazole-4-carboxamide], the half-maximal inhibitory concentration (IC50) in test [1] was below 100 nM. Moreover, the EC50 in the test on A549 cells fell in the range of 100 to 500 nM.

As to `O=C(CN1CCSCC1)Nc1ccn(CCC(F)Cn2cc(C(=O)NCc3cccc(OC(F)(F)F)c3)nn2)c(=O)c1` (centres unmarked) [Example 228, 1-(2-fluoro-4-{2-oxo-4-[2-(thiomorpholin-4-yl)acetamido]-1,2-dihydropyridin-1-yl}butyl)-N-{[3-(trifluoromethoxy)phenyl]methyl}-1H-1,2,3-triazole-4-carboxamide], the IC50 in test [1] is below 100 nM. For the same compound, in the test on A549 cells, the EC50 is below 100 nM.

Consider `CC(=O)N1CCN(CC(=O)Nc2ccn(CCC(F)Cn3cc(C(=O)NCc4cccc(OC(F)(F)F)c4)nn3)c(=O)c2)CC1` (centres unmarked) [Example 229, 1-(4-{4-[2-(4-acetylpiperazin-1-yl)acetamido]-2-oxo-1,2-dihydropyridin-1-yl}-2-fluorobutyl)-N-{[3-(trifluoromethoxy)phenyl]methyl}-1H-1,2,3-triazole-4-carboxamide], for which the IC50 in test [1] lay in the range of 100 to 500 nM. For the same compound, the EC50 in the test with A549 cells lay in the range of 500 to 5000 nM.

As for `O=C(CN1CCS(=O)(=O)CC1)Nc1ccn(CCC(F)Cn2cc(C(=O)NCc3cccc(OC(F)(F)F)c3)nn2)c(=O)c1` (centres unmarked) [Example 231, 1-(4-{4-[2-(1,1-dioxo-1$l^6,4-thiomorpholin-4-yl)acetamido]-2-oxo-1,2-dihydropyridin-1-yl}-2-fluorobutyl)-N-{[3-(trifluoromethoxy)phenyl]methyl}-1H-1,2,3-triazole-4-carboxamide], in test [1], the IC50 fell in the range of 100 to 500 nM. Also, the EC50 with A549 cells is above 5000 nM.

On to `O=C(CN1CC(F)(F)C1)Nc1ccn(CCC(F)Cn2cc(C(=O)NCc3cccc(OC(F)(F)F)c3)nn2)c(=O)c1` (centres unmarked) [Example 232, 1-(4-{4-[2-(3,3-difluoroazetidin-1-yl)acetamido]-2-oxo-1,2-dihydropyridin-1-yl}-2-fluorobutyl)-N-{[3-(trifluoromethoxy)phenyl]methyl}-1H-1,2,3-triazole-4-carboxamide], for which, in test [1], the IC50 was below 100 nM. This compound also registered an EC50 with A549 cells of 100 to 500 nM.

As for `CC(C)(C)OC(=O)Nc1ccn(CCC(F)Cn2cc(C(=O)NCc3cc(Cl)ccc3F)nn2)c(=O)c1` (centres unmarked) [Example 233, tert-butyl N-{1-[4-(4-{[(5-chloro-2-fluorophenyl)methyl]carbamoyl}-1H-1,2,3-triazol-1-yl)-3-fluorobutyl]-2-oxo-1,2-dihydropyridin-4-yl}carbamate], in test [1], the half-inhibitory concentration (IC50) was below 100 nM. Further, the EC50 with A549 cells is 500 to 5000 nM.

`CC(C)(C)OC(=O)Nc1ccn(CCC(F)Cn2cc(C(=O)NCc3cccc(OC(F)(F)F)c3)nn2)c(=O)c1` (centres unmarked) [Example 234, tert-butyl N-(1-{3-fluoro-4-[4-({[3-(trifluoromethoxy)phenyl]methyl]carbamoyl)-1H-1,2,3-triazol-1-yl]butyl}-2-oxo-1,2-dihydropyridin-4-yl)carbamate]: the IC50 in test [1] was below 100 nM. Besides, the EC50 with A549 cells was in the range of 100 to 500 nM.

Consider `N#Cc1cccc(CC(=O)Nc2ccn(CCC(F)Cn3cc(C(=O)NCc4cccc(OC(F)(F)F)c4)nn3)c(=O)c2)c1` (centres unmarked) [Example 235, 1-(4-{4-[2-(3-cyanophenyl)acetamido]-2-oxo-1,2-dihydropyridin-1-yl}-2-fluorobutyl)-N-{[3-(trifluoromethoxy)phenyl]methyl}-1H-1,2,3-triazole-4-carboxamide], for which the IC50 in test [1] was below 100 nM. The compound further displayed an EC50 in the test on A549 cells of 500 to 5000 nM.

Regarding `O=C(Cc1cccnc1Cl)Nc1ccn(CCC(F)Cn2cc(C(=O)NCc3cccc(OC(F)(F)F)c3)nn2)c(=O)c1` (centres unmarked) [Example 236, 1-(4-{4-[2-(2-chloropyridin-3-yl)acetamido]-2-oxo-1,2-dihydropyridin-1-yl}-2-fluorobutyl)-N-{[3-(trifluoromethoxy)phenyl]methyl}-1H-1,2,3-triazole-4-carboxamide], the IC50 in test [1] was below 100 nM. The compound also gave an EC50 in the test with A549 cells of 500 to 5000 nM.
